Data reported in ChEMBL document CHEMBL4715874, “In Vivo Screening of Xanthones from Garcinia oligantha Identified Oliganthin H as a Novel Natural Inhibitor of Convulsions” (J Nat Prod, 2020).
Active and inactive are the calls of the source. The calls are words filed in the database; no cut-off is given here.

Assays:
[1] = Neurotoxicity in AB zebra fish larvae at 100 uM after 6 hrs; assay type: toxicity, Danio rerio; conditions: zebrafish
Danio rerio [2] = species: Danio rerio; experiment: Anticonvulsant activity in AB zebra fish larvae assessed as PTZ-induced seizure activity at 6.2 uM pretreated for 6 hrs followed by PTZ-stimulation and measured every 5 mins for 30 mins (reference value: 14.13 +/- 0.004 mm); assay type: functional; conditions: time 6.5 hrs
Danio rerio [3] = species: Danio rerio; experiment: Anticonvulsant activity in AB zebra fish larvae assessed as PTZ-induced BDNF mRNA expression at 25 uM pretreated for 6 hrs followed by PTZ-stimulation and measured after 30 mins by qRT-PCR analysis (reference value: 11.41 +/- 1.09%); assay type: functional; conditions: time 6.5 hrs
Danio rerio [4] = species: Danio rerio; experiment: Anticonvulsant activity in AB zebra fish larvae assessed as reduction in PTZ-induced convulsant behavior by measuring swimming distance at 25 uM pretreated for 6 hrs followed by PTZ-stimulation and measured every 5 mins for 1 hr relative to control; assay type: functional; parameters: scale not given: the % may be the effect or the level left; conditions: time 7 hrs
Danio rerio [5] = species: Danio rerio; experiment: Anticonvulsant activity in AB zebra fish larvae assessed as PTZ-induced seizure activity at 12.5 uM pretreated for 6 hrs followed by PTZ-stimulation and measured every 5 mins for 30 mins (reference value: 14.13 +/- 0.004 mm); assay type: functional; conditions: time 6.5 hrs
Danio rerio [6] = species: Danio rerio; experiment: Anticonvulsant activity in AB zebra fish larvae assessed as PTZ-induced number of burst at 6.2 uM pretreated for 6 hrs followed by PTZ-stimulation and measured every 5 mins for 30 mins (reference value: 9.25 +/- 6.36); assay type: functional; conditions: time 6.5 hrs
Danio rerio [7] = species: Danio rerio; experiment: Anticonvulsant activity in AB zebra fish larvae assessed as PTZ-induced glud1a mRNA expression at 25 uM pretreated for 6 hrs followed by PTZ-stimulation and measured after 30 mins by qRT-PCR analysis (reference value: 1.67 +/- 0.4%); assay type: functional; conditions: time 6.5 hrs
Danio rerio [8] = species: Danio rerio; experiment: Anticonvulsant activity in AB zebra fish larvae assessed as PTZ-induced number of burst at 12.5 uM pretreated for 6 hrs followed by PTZ-stimulation and measured every 5 mins for 30 mins (reference value: 9.25 +/- 6.36); assay type: functional; conditions: time 6.5 hrs
[9] = Effect of PYYA mRNA expression in AB zebra fish larvae at 25 uM after 6 hrs by qRT-PCR analysis (reference value: 1 +/- 0.13%); assay type: ADME, Danio rerio; conditions: zebrafish
Danio rerio [10] = species: Danio rerio; experiment: Anticonvulsant activity in AB zebra fish larvae assessed as PTZ-induced seizure activity at 25 uM pretreated for 6 hrs followed by PTZ-stimulation and measured every 5 mins for 30 mins (reference value: 14.13 +/- 0.004 mm); assay type: functional; conditions: time 6.5 hrs
[11] = Effect of npas4a mRNA expression in AB zebra fish larvae at 25 uM after 6 hrs by qRT-PCR analysis (reference value: 1.04 +/- 0.41%); assay type: ADME, Danio rerio; conditions: zebrafish
Danio rerio [12] = species: Danio rerio; experiment: Anticonvulsant activity in AB zebra fish larvae assessed as PTZ-induced GLULA mRNA expression at 25 uM pretreated for 6 hrs followed by PTZ-stimulation and measured after 30 mins by qRT-PCR analysis (reference value: 5.44 +/- 0.55%); assay type: functional; conditions: time 6.5 hrs
Danio rerio [13] = species: Danio rerio; experiment: Anticonvulsant activity in AB zebra fish larvae assessed as reduction in PTZ-induced convulsant behavior by measuring lowest observed effect concentration pretreated for 6 hrs followed by PTZ-stimulation and measured every 5 mins for 1 hr; assay type: functional; conditions: time 7 hrs
[14] = Effect of c-fos mRNA expression in AB zebra fish larvae at 25 uM after 6 hrs by qRT-PCR analysis (reference value: 1.06 +/- 0.52%); assay type: ADME, Danio rerio; conditions: zebrafish
Danio rerio [15] = species: Danio rerio; experiment: Anticonvulsant activity in AB zebra fish larvae assessed as PTZ-induced GLSA mRNA expression at 25 uM pretreated for 6 hrs followed by PTZ-stimulation and measured after 30 mins by qRT-PCR analysis (reference value: 3.4 +/- 0.5%); assay type: functional; conditions: time 6.5 hrs
[16] = Effect of PRKACAB mRNA expression in AB zebra fish larvae at 25 uM after 6 hrs by qRT-PCR analysis (reference value: 1 +/- 0.03%); assay type: ADME, Danio rerio; conditions: zebrafish
Danio rerio [17] = species: Danio rerio; experiment: Anticonvulsant activity in AB zebra fish larvae assessed as PTZ-induced pvalb5 mRNA expression at 25 uM pretreated for 6 hrs followed by PTZ-stimulation and measured after 30 mins by qRT-PCR analysis (reference value: 0.59 +/- 0.52%); assay type: functional; conditions: time 6.5 hrs
Danio rerio [18] = species: Danio rerio; experiment: Anticonvulsant activity in AB zebra fish larvae assessed as PTZ-induced seizure duration time at 12.5 uM pretreated for 6 hrs followed by PTZ-stimulation and measured every 5 mins for 30 mins (reference value: 0.32 +/- 0.31 s); assay type: functional; conditions: time 6.5 hrs
[19] = Neurotoxicity in AB zebra fish larvae assessed as increase in total swimming distance at > 12.5 uM after 6 hrs; assay type: toxicity, Danio rerio; conditions: zebrafish
Danio rerio [20] = species: Danio rerio; experiment: Anticonvulsant activity in AB zebra fish larvae assessed as PTZ-induced seizure duration time at 6.2 uM pretreated for 6 hrs followed by PTZ-stimulation and measured every 5 mins for 30 mins (reference value: 0.32 +/- 0.31 s); assay type: functional; conditions: time 6.5 hrs
Danio rerio [21] = species: Danio rerio; experiment: Anticonvulsant activity in AB zebra fish larvae assessed as reduction in PTZ-induced convulsant behavior by measuring swimming distance at 6.2 uM pretreated for 6 hrs followed by PTZ-stimulation and measured every 5 mins for 1 hr; assay type: functional, organism-based; conditions: time 7.0 hrs
[22] = Ratio of MTC for toxicity in AB zebra fish larvae to lowest observed effect concentration for Anticonvulsant activity in AB zebra fish larvae assessed as reduction in PTZ-induced convulsant behavior; parameters: species or system Danio rerio
Danio rerio [23] = species: Danio rerio; experiment: Anticonvulsant activity in AB zebra fish larvae assessed as PTZ-induced gat1 mRNA expression at 25 uM pretreated for 6 hrs followed by PTZ-stimulation and measured after 30 mins by qRT-PCR analysis (reference value: 1.63 +/- 0.28%); assay type: functional; conditions: time 6.5 hrs
Danio rerio [24] = species: Danio rerio; experiment: Anticonvulsant activity in AB zebra fish larvae assessed as PTZ-induced seizure duration time at 25 uM pretreated for 6 hrs followed by PTZ-stimulation and measured every 5 mins for 30 mins (reference value: 0.32 +/- 0.31 s); assay type: functional; conditions: time 6.5 hrs
Danio rerio [25] = species: Danio rerio; experiment: Anticonvulsant activity in AB zebra fish larvae assessed as PTZ-induced velocity at 6.2 uM pretreated for 6 hrs followed by PTZ-stimulation and measured every 5 mins for 30 mins (reference value: 0.63 +/- 0.23 mm/s); assay type: functional; conditions: time 6.5 hrs

## CC(C)=CCC/C(C)=C/C[C@@]1(CC=C(C)C)C(=O)C(O)=C(O)c2oc3c4c(cc(O)c3c(=O)c21)OC(C)(C)C=C4
[1]
  Activity: Toxic
Danio rerio [2]
  Activity: 1210 mm
Danio rerio [3]
  Activity: 1.32%
Danio rerio [4]
  Activity: 50%
Danio rerio [5]
  Activity: 600.8 mm
Danio rerio [6]
  Activity: 287.3
Danio rerio [7]
  Activity: 1.24%
Danio rerio [8]
  Activity: 153.5
[9]
  Activity: 2.27%
Danio rerio [10]
  Activity: 557.9 mm
[11]
  Activity: 1.95%
Danio rerio [12]
  Activity: 1.61%
Danio rerio [13]
  Activity: 12.5 µM
[14]
  Activity: 1.67%
Danio rerio [15]
  Activity: 0.92%
[16]
  Activity: 0.9%
Danio rerio [17]
  Activity: 0.85%
Danio rerio [18]
  Time: 8.18 s
[19]
  Activity: Toxic
Danio rerio [20]
  Time: 18.46 s
Danio rerio [21]
  Activity: inactive
[22]
  Ratio: 4
Danio rerio [23]
  Activity: 1.13%
Danio rerio [24]
  Time: 7.32 s
Danio rerio [25]
  Activity: 1.2 millimeter/sec
